Experiment in all cases: Kinase binding assay (kinase-tagged T7 phage, qPCR), Kd
For orientation: In qPCR the cycle at which signal appears reflects the starting amount.

For one experiment, the target named is T1, FGFR1 (Homo sapiens, UniProt P11362).
T1 construct: made in house; host or cells: E. coli derived from BL21, infected with T7 phage
As to conditions: read-out: FGFR1 (Kd nM). The method, then: (§1) Kinase-tagged T7 phage strains were prepared in an E. coli host derived from the BL21 strain. E. coli were grown to log-phase and infected with T7 phage and incubated with shaking at 32° C. until lysis. The lysates were centrifuged and filtered to remove cell debris. […] The liganded beads were blocked with excess biotin and washed with blocking buffer SeaBlock (Pierce), 1% BSA, 0.05% Tween 20, 1 mM DTT to remove unbound ligand and to reduce non-specific binding.
(§2) Kds were determined using an 11-point 3-fold compound dilution series with three DMSO control points. […] The compounds were then diluted directly into the assays such that the final concentration of DMSO was 0.9%. All reactions performed in polypropylene 384-well plate. Each was a final volume of 0.02 ml. […] The kinase concentration in the eluates was measured by qPCR.
(§3) Binding constants were calculated with a standard dose-response curve using the Hill equation: […]
(§4) The Hill Slope was set to −1. Curves were fitted using a non-linear least square fit with the Levenberg-Marquardt algorithm.

The target in the next experiment is T2, FGFR2 (Homo sapiens, UniProt P21802).
T2 construct: made in house; host or cells: E. coli derived from BL21, infected with T7 phage
As to conditions: read-out: FGFR2 (Kd nM). On the procedure:
as §1, §2, §3, §4

A further experiment addresses T3, FGFR4 (Homo sapiens, UniProt P22455).
T3 construct: made in house; host or cells: E. coli derived from BL21, infected with T7 phage
As to conditions: read-out: FGFR4 (Kd nM). The method, then: (§5) Kinase-tagged T7 phage strains were prepared in an E. coli host derived from the BL21 strain. E. coli were grown to log-phase and infected with T7 phage and incubated with shaking at 32° C. until lysis. The lysates were centrifuged and filtered to remove cell debris. Streptavidin-coated magnetic beads were treated with biotinylated small molecule ligands for 30 minutes at room temperature to generate affinity resins for kinase assays. The liganded beads were blocked with excess biotin and washed with blocking buffer SeaBlock (Pierce), 1% BSA, 0.05% Tween 20, 1 mM DTT to remove unbound ligand and to reduce non-specific binding. Binding reactions were assembled by combining kinases, liganded affinity beads, and test compounds in 1× binding buffer (20% SeaBlock, 0.17×PBS, 0.05% Tween 20, 6 mM DTT).
(§6) Test compounds were prepared as 111X stocks in 100% DMSO. Kds were determined using an 11-point 3-fold compound dilution series with three DMSO control points. All compounds for Kd measurements are distributed by acoustic transfer (non-contact dispensing) in 100% DMSO. The compounds were then diluted directly into the assays such that the final concentration of DMSO was 0.9%. All reactions performed in polypropylene 384-well plate. Each was a final volume of 0.02 ml. The assay plates were incubated at room temperature with shaking for 1 hour and the affinity beads were washed with wash buffer (1×PBS, 0.05% Tween 20). The beads were then re-suspended in elution buffer (1×PBS, 0.05% Tween 20, 0.5 μM non-biotinylated affinity ligand) and incubated at room temperature with shaking for 30 minutes. The kinase concentration in the eluates was measured by qPCR.
as §3, §4

For the next experiment, the target named is T4, FGFR3 (Homo sapiens, UniProt P22607).
T4 construct: made in house; host or cells: E. coli derived from BL21, infected with T7 phage
As to conditions: read-out: FGFR3 (Kd nM). The method, then:
as §5, §6, §3, §4

T2 sequence (P21802 22-821): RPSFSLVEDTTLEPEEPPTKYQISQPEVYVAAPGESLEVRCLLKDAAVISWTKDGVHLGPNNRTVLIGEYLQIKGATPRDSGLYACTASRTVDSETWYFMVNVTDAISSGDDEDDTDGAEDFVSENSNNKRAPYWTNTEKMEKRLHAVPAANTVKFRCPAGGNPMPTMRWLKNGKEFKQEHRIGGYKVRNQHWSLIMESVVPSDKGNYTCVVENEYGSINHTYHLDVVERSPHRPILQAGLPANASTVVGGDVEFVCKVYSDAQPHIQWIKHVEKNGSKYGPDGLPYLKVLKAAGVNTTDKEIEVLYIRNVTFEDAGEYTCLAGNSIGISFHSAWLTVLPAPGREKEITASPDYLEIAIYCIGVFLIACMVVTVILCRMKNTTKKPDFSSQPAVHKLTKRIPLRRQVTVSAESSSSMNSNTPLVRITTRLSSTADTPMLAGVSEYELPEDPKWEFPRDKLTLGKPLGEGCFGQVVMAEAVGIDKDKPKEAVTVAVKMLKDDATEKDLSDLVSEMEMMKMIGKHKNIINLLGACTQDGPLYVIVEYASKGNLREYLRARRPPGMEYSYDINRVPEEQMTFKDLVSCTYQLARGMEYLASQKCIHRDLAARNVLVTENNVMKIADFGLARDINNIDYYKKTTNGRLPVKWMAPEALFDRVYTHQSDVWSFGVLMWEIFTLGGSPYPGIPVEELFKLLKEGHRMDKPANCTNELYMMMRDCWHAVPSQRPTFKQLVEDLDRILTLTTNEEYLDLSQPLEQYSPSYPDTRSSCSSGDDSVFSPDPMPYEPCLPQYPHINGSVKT
T1 sequence (P11362 22-822): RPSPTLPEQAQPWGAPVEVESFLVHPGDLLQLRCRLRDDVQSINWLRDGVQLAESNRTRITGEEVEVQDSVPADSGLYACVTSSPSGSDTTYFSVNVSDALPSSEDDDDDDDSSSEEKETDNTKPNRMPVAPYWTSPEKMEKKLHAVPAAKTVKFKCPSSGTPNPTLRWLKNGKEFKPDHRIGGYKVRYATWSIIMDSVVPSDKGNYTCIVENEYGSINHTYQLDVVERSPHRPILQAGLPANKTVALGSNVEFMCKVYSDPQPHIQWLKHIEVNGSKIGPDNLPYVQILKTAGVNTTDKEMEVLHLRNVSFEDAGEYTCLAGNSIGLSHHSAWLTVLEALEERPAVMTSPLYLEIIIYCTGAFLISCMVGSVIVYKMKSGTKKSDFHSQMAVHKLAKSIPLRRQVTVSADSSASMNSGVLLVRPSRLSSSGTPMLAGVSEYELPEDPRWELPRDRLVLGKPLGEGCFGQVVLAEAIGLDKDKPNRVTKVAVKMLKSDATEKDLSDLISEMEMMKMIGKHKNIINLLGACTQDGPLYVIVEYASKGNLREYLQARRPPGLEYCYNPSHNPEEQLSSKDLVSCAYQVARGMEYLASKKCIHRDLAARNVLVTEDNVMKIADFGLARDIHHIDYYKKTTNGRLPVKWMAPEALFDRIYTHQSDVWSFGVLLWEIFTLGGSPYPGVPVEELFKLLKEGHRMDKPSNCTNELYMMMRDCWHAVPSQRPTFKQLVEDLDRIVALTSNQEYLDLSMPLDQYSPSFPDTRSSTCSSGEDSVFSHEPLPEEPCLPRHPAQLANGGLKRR
T4 sequence (P22607 23-806): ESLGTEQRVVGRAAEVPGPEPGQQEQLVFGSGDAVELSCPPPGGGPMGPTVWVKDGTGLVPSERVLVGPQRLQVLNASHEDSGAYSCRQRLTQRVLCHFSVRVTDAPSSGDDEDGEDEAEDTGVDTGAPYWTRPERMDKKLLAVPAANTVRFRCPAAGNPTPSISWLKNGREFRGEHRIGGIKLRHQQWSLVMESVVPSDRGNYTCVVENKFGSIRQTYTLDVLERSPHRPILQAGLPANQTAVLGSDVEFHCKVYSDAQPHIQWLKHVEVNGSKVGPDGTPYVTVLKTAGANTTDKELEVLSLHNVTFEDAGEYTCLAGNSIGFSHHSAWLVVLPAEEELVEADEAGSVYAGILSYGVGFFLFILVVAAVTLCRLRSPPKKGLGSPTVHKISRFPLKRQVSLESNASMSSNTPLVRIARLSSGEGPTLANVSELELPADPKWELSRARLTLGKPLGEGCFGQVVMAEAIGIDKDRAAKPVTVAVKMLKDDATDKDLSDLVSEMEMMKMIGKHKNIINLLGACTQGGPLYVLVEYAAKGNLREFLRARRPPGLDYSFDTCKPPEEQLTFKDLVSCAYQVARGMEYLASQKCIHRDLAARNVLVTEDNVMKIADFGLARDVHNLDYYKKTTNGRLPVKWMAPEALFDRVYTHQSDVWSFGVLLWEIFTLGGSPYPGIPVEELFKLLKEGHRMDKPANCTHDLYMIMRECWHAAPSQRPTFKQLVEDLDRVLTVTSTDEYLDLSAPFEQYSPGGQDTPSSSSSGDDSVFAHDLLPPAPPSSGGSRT
T3 sequence (P22455 22-802): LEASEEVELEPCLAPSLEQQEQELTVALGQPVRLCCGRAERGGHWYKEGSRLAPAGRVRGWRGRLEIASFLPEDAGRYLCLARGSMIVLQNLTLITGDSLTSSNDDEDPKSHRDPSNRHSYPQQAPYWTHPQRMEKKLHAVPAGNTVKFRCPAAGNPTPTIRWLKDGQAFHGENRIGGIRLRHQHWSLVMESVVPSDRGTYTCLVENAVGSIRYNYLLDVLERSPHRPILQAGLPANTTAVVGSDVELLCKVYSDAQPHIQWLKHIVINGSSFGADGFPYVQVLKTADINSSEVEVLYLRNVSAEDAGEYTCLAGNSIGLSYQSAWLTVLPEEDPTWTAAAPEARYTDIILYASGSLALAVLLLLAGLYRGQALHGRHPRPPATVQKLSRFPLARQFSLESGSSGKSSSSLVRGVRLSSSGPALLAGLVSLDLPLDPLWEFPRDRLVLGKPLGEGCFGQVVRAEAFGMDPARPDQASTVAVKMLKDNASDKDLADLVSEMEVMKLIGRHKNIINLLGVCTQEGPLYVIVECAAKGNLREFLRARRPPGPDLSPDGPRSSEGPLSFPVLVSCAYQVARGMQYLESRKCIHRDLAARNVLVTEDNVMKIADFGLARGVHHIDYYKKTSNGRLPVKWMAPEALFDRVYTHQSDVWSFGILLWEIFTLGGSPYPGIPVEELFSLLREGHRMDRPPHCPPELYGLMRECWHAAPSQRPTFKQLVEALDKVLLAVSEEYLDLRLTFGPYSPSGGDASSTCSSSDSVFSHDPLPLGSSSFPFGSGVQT

By Kd is commonly meant the constant that tells how readily two partners part at equilibrium. `COc1cc(NCc2cccnc2)cc(-c2n[nH]c3ccc(O[C@H](C)c4c(Cl)cncc4Cl)cc23)c1` [Example 47, 3-[5-[(1R)-1-(3,5-dichloro-4-pyridyl)ethoxy]-1H-indazol-3-yl]-5-methoxy-N-(3-pyridyl-methyl)aniline]: the Kd fell in the range of 100 to 250 nM on FGFR1, 100 to 250 nM at FGFR2, 250 to 1000 nM at FGFR4 and 0.1 to 100 nM at FGFR3.
As to `C[C@@H](Oc1ccc2[nH]nc(-c3ccc4c(c3)CCC3(CCNCC3)O4)c2c1)c1c(Cl)cncc1Cl` [Example 104, 6-[5-[(1R)-1-(3,5-dichloro-4-pyridyl)ethoxy]-1H-indazol-3-yl]spiro[chromane-2,4′-piperidine]], the Kd on FGFR1, at FGFR2, at FGFR4 and on FGFR3 was 0.1 to 100 nM throughout.
On to `COCCNc1cc(-c2n[nH]c3ccc(O[C@H](C)c4c(Cl)cncc4Cl)cc23)ccn1` [Example 35, (R)-4-(5-(1-(3,5-Dichloropyridin-4-yl)ethoxy)-1H-indazol-3-yl)-N-(2-methoxyethyl)pyridin-2-amine], for which the Kd on FGFR1, on FGFR2, at FGFR4 and on FGFR3 was 0.1 to 100 nM each time.
For `C[C@@H](Oc1ccc2[nH]nc(-c3cnc(NC4CCOCC4)c(C#N)c3)c2c1)c1c(Cl)cncc1Cl` [Example 132, (R)-5-(5-(1-(3,5-dichloropyridin-4-yl)ethoxy)-1H-indazol-3-yl)-2-((tetrahydro-2H-pyran-4-yl)amino)nicotinonitrile], the Kd on FGFR1, on FGFR2, on FGFR4 and on FGFR3 was 0.1 to 100 nM each time.
Take `COc1ncc(-c2n[nH]c3ccc(O[C@H](C)c4c(Cl)cncc4Cl)cc23)cc1NC(=O)CN(C)C` [Example 15, N-[5-[5-[(1R)-1-(3,5-dichloro-4-pyridyl)ethoxy]-1H-indazol-3-yl]-2-methoxy-3-pyridyl]-2-(dimethylamino)acetamide]: the Kd is greater than 1000 nM at FGFR1, greater than 1000 nM at FGFR2, 0.1 to 100 nM at FGFR4 and 100 to 250 nM at FGFR3.
In the case of `CCOc1cc(OC)cc(-c2n[nH]c3ccc(O[C@@H](C)c4c(C)cnnc4C)cc23)c1` [Example 59, 5-[(1S)-1-(3,5-dimethylpyridazin-4-yl)ethoxy]-3-(3-ethoxy-5-methoxy-phenyl)-1H-indazole], the dissociation constant (Kd) at FGFR1, on FGFR2, on FGFR4 and at FGFR3 was greater than 1000 nM throughout.
Turning to `Cc1cnnc(C)c1[C@@H](C)Oc1ccc2[nH]nc(-c3cc(C#N)cc(N4CCN(C)CC4)c3)c2c1` [Example 62, 3-[5-[(1R)-1-(3,5-dimethylpyridazin-4-yl)ethoxy]-1H-indazol-3-yl]-5-(4-methylpiperazin-1-yl)benzonitrile], the Kd on FGFR1 is greater than 1000 nM; on FGFR2, greater than 1000 nM; on FGFR4, 100 to 250 nM; at FGFR3 it was greater than 1000 nM.
Consider `Cc1ncc(Cl)c([C@@H](C)Oc2ccc3[nH]nc(-c4ccc5c(c4)COC4(CCN(CC(F)(F)F)CC4)O5)c3c2)c1Cl` [Example 167, 6-[5-[(1R)-1-(3,5-dichloro-2-methyl-4-pyridyl)ethoxy]-1H-indazol-3-yl]-1′-(2,2,2-trifluoroethyl)spiro[4H-1,3-benzodioxine-2,4′-piperidine]], for which the Kd was 100 to 250 nM on FGFR1, 100 to 250 nM on FGFR2, 0.1 to 100 nM at FGFR4 and 0.1 to 100 nM on FGFR3.
For `Cc1cc(-c2n[nH]c3ccc(O[C@H](C)c4c(C)cnnc4C)cc23)cc(C#N)c1OC1CCN(C(C)C)CC1` [Example 110, (R)-5-(5-(1-(3,5-dimethylpyridazin-4-yl)ethoxy)-1H-indazol-3-yl)-2-((1-isopropylpiperidin-4-yl)oxy)-3-methylbenzonitrile], the Kd at FGFR1, at FGFR2, on FGFR4 and on FGFR3 was 0.1 to 100 nM each time.
With `Cc1cnnc(C)c1[C@@H](C)Oc1ccc2[nH]nc(-c3cc(C#N)cc(C4CCCC4)c3)c2c1` [Example 86, 3-cyclopentyl-5-[5-[(1R)-1-(3,5-dimethylpyridazin-4-yl)ethoxy]-1H-indazol-3-yl]benzonitrile], the Kd at FGFR1 is greater than 1000 nM; at FGFR2 it was greater than 1000 nM; on FGFR4, 250 to 1000 nM; on FGFR3 it was greater than 1000 nM.
`C[C@@H](Oc1ccc2[nH]nc(-c3ccc(NC(=O)N(C)C)nc3)c2c1)c1c(Cl)cncc1Cl` [Example 14, 3-[5-[5-[(1R)-1-(3,5-dichloro-4-pyridyl)ethoxy]-1H-indazol-3-yl]-2-pyridyl]-1,1-dimethyl-urea]: the Kd on FGFR1, on FGFR2, at FGFR4 and on FGFR3 was 0.1 to 100 nM throughout.
As for `CCOc1cc(C#N)cc(-c2n[nH]c3ccc(O[C@H](C)c4c(C)cnnc4C)cc23)c1` [Example 56, 3-[5-[(1R)-1-(3,5-dimethylpyridazin-4-yl)ethoxy]-1H-indazol-3-yl]-5-ethoxy-benzonitrile], the Kd on FGFR1 lay in the range of 250 to 1000 nM; on FGFR2 it was 250 to 1000 nM; at FGFR4, 0.1 to 100 nM; on FGFR3, 100 to 250 nM.
For `COc1cc(OC(F)(F)F)cc(-c2n[nH]c3ccc(O[C@H](C)c4c(C)cnnc4C)cc23)c1` [Example 63, 5-[(1R)-1-(3,5-dimethylpyridazin-4-yl)ethoxy]-3-[3-methoxy-5-(trifluoromethoxy)phenyl]-1H-indazole], the Kd is greater than 1000 nM on FGFR1, greater than 1000 nM at FGFR2, 0.1 to 100 nM at FGFR4 and 250 to 1000 nM at FGFR3.
As for `C[C@@H](Oc1ccc2[nH]nc(-c3ccc(NC(=O)N4CCC(O)C4)nc3)c2c1)c1c(Cl)cncc1Cl` (stereo partly drawn) [Example 24, N-[5-[5-[(1R)-1-(3,5-dichloro-4-pyridyl)ethoxy]-1H-indazol-3-yl]-2-pyridyl]-3-hydroxy-pyrrolidine-1-carboxamide], the Kd on FGFR1, at FGFR2, at FGFR4 and at FGFR3 was 0.1 to 100 nM each time.
As for `CCN1CCC2(CCc3cc(-c4n[nH]c5ccc(O[C@H](C)c6c(Cl)cncc6Cl)cc45)ccc3O2)CC1` [Example 121, 6-[5-[(1R)-1-(3,5-dichloro-4-pyridyl)ethoxy]-1H-indazol-3-yl]-1′-ethylspiro[chromane-2,4′-piperidine]], the Kd on FGFR1, at FGFR2, on FGFR4 and on FGFR3 was 0.1 to 100 nM in each case.
With `CCN1CCC2(CC1)CC(O)c1cc(-c3n[nH]c4ccc(O[C@H](C)c5c(C)cnnc5C)cc34)ccc1O2` (stereo partly drawn) [Example 107, 6-(5-((R)-1-(3,5-dimethylpyridazin-4-yl)ethoxy)-1H-indazol-3-yl)-1′-ethylspiro[chroman-2,4′-piperidin]-4-ol], the Kd on FGFR1, on FGFR2, on FGFR4 and on FGFR3 was 0.1 to 100 nM each time.
As for `C[C@@H](Oc1ccc2[nH]nc(-c3cnc4c(c3)N(C(=O)OCCCN(C)C)CCO4)c2c1)c1c(Cl)cncc1Cl` [Example 43, 3-(dimethyl-amino)propyl 7-[5-[(1R)-1-(3,5-dichloro-4-pyridyl)ethoxy]-1H-indazol-3-yl]-2,3-dihydro-pyrido[2,3-b][1,4]oxazine-1-carboxylate], the Kd at FGFR1 lay within 250 to 1000 nM; on FGFR2 it was 250 to 1000 nM; on FGFR4, 0.1 to 100 nM; at FGFR3, 0.1 to 100 nM.
As for `C[C@@H](Oc1ccc2[nH]nc(-c3cnc4c(c3)N(CCN3CCOCC3)CCO4)c2c1)c1c(Cl)cncc1Cl` [Example 50, 7-[5-[(1R)-1-(3,5-dichloro-4-pyridyl)ethoxy]-1H-indazol-3-yl]-1-(2-morpholino-ethyl)-2,3-dihydropyrido[2,3-b][1,4]oxazine], the Kd on FGFR1 is greater than 1000 nM; on FGFR2, greater than 1000 nM; on FGFR4 it was 0.1 to 100 nM; at FGFR3 it was greater than 1000 nM.
On to `COc1cc(C#N)cc(-c2n[nH]c3cc(OC)c(O[C@H](C)c4c(C)cnnc4C)cc23)c1` [Example 101, (R)-3-(5-(1-(3,5-dimethylpyridazin-4-yl)ethoxy)-6-methoxy-1H-indazol-3-yl)-5-methoxybenzonitrile], for which the Kd on FGFR1, at FGFR2 and on FGFR3 was 0.1 to 100 nM throughout.

For the origin of these results see patent US20240316022A1 (TYRA BIOSCIENCES, INC., priority 2021, published 2024).
